Source: PubChem BioAssay AID463229 (Broad Institute, 2010)
Activity calls are given as the source filed them.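 The calls were made as follows: active = compounds raising the signal whose fitted half-maximal concentration is at or below their top tested dose (cut at about 25 µM in these data); inconclusive = flat fit at 30 to 70% activity, or a poor fit; inactive = the rest.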

These compounds were tested on INS-1E rat beta cells, no cytokines, CellTiter-Glo ATP, 48 h (assay: ATP level change in INS-1E without cytokines, dose response, counter-screen for beta-cell apoptosis protection project, INS-1E rat cells, ATP luminescence, cherry pick (AID 463229)).

Point of comparison: `CC(C)c1ccc(/C=C(\c2nc3ccccc3[nH]2)S(=O)(=O)c2ccccc2)cc1`, AC50 4.54 µM. Against it:
- Cc1ccc2nc(-c3ccc(-c4cccc(Cl)c4)cc3)c(NCc3ccccc3)n2c1 — 1.8-fold lower, 2.48 µM
- O=C(N/N=C/c1ccccc1O)c1ccc2c(c1)OCO2 — 1.6-fold higher, 7.41 µM
- COc1ccc(O)c(C(=O)c2cnc3nc4ccccc4n3c2)c1 — within 1.5-fold, 6.33 µM
- C=C(C(=O)c1ccccc1)C(C)C(=C)C(=O)c1ccccc1 — 1.7-fold higher, 7.84 µM
- Cc1ccc2nc(-c3cccc(-c4cccc(Cl)c4)c3)c(NCc3ccccc3)n2c1 — 1.6-fold higher, 7.11 µM
- Cc1ccc2nc(C)c(CN3CCN(c4ccc([N+](=O)[O-])cc4Cl)CC3)n2c1 — 1.6-fold lower, 2.92 µM
- O=[N+]([O-])c1ccc(/C=N/n2c(CO)nc3ccccc32)s1 — 2.4-fold higher, 10.8 µM
- O=C1C=C(Nc2ccccc2O)c2ccccc2C1=O — 1.8-fold higher, 8.04 µM
- O=C(OCn1ncc(Cl)c(Cl)c1=O)c1ccc(F)cc1 — 1.5-fold higher, 7.02 µM
- O=C(N/N=C/c1cc([N+](=O)[O-])ccc1O)c1cccc2cc[nH]c12 — 1.5-fold higher, 6.89 µM
- O=C(NC1(Cc2ccccc2)CCN(CCCc2ccccc2)C1=O)c1ccccc1 (centres undefined) — within 1.5-fold, 4.71 µM
- Cc1cccc(NC(=O)c2nc(S(=O)(=O)Cc3ccccc3)ncc2Cl)c1 — 3.5-fold higher, 15.8 µM
- N#C/C(=N\Nc1ccc(Cl)cc1)C(=O)c1ccccc1 — 1.6-fold lower, 2.84 µM
- CCCOC(=O)c1ccc(-[n+]2c(-c3ccccc3)cc(-c3ccccc3)cc2-c2ccccc2)cc1 — 2.1-fold lower, 2.15 µM
- CCN(Cc1ccccc1)C(c1cccs1)c1nnnn1C1CCCCC1 (centres undefined) — 3-fold higher, 13.4 µM
- Cc1cc(C)cc(OCC(O)CN2CCC(CN3C(=O)c4cccc5cccc(c45)C3=O)CC2)c1 (centres undefined) — 1.8-fold higher, 7.97 µM
- Cc1ccc(Nc2nc(NCc3ccco3)c3ccccc3n2)cc1 — 1.8-fold higher, 8.02 µM
- O=C(Nc1ccc(C(=O)Nc2ccccc2Cl)cc1)c1cccnc1 — 2.5-fold lower, 1.85 µM
- Cc1nnc(N/N=C/c2cc([N+](=O)[O-])c(N3CCC(C)CC3)cc2N2CCC(C)CC2)n1N — 1.8-fold lower, 2.54 µM
- CCOC(=O)c1c(NC(=O)C[n+]2ccc(Cc3ccccc3)cc2)sc(C)c1C — 2.4-fold higher, 10.9 µM
- CCN(CC)c1ccc(/C=N/NC(=O)c2cccc(S(=O)(=O)Nc3ccccc3OC)c2)c(O)c1 — 2.8-fold lower, 1.62 µM
- Cc1cc(N/N=C/c2ccccc2[N+](=O)[O-])nc(-n2nc(C)cc2C)n1 — 2.7-fold higher, 12.2 µM
- CN(C)c1ccc(-c2cc(O)c3ncccc3c2)cc1 — 5.9-fold higher, 26.9 µM
- CC(=O)c1c(C)[nH]c(C(=O)OCCCCN2C(=O)c3ccccc3C2=O)c1C — within 1.5-fold, 6.54 µM
- CCOC(=O)/C(=C\c1ccccc1)C(=O)c1cc(C(C)=O)c(Nc2ccccc2)s1 — within 1.5-fold, 6.53 µM
- CCOC(=O)c1[nH]cnc1N=Nc1c(O)ccc2ccccc12 — 2-fold lower, 2.28 µM
- CCCCCCn1ccc(=N)cc1 — within 1.5-fold, 3.12 µM
- CCN1CCN(Cc2ccc(NC(=O)c3cc(NC(=O)c4cncc(-c5ccc(C#N)cc5)c4)cc(OC)c3)cc2C(F)(F)F)CC1 — 2.4-fold higher, 10.8 µM
- COc1ccc(N=C2S/C(=C\c3ccc(N4CCOCC4)o3)C(=O)N2CCc2c[nH]c3ccccc23)cc1 — 3-fold higher, 13.8 µM
- C=C(C(=O)c1ccccc1)C(C(=C)C(=O)c1ccccc1)c1ccc(OC)cc1 — 1.7-fold higher, 7.54 µM
- COc1ccc(C2=NNC(=Nc3cc(S(=O)(=O)N(C)C)ccc3C)SC2)c(OC)c1 — within 1.5-fold, 3.06 µM
- Clc1ccc(CSc2ccc(-c3ccccn3)nn2)cc1 — within 1.5-fold, 6.32 µM
- Cn1nc([N+](=O)[O-])nc1Sc1cccc2cccnc12 — 1.7-fold higher, 7.81 µM
- O=[N+]([O-])c1ccc(-[n+]2ccc3ccccc3c2)c([N+](=O)[O-])c1 — 1.7-fold higher, 7.89 µM
- Clc1ccc2nnnc(-c3ccccc3)c2c1 — 1.6-fold higher, 7.48 µM
- CC(=O)CSc1ccc(-c2nc3ccccc3[nH]2)cn1 — within 1.5-fold, 6.38 µM
- CCCC(=O)NC(c1cccs1)c1cc(Cl)c2cccnc2c1O (centres undefined) — within 1.5-fold, 5.67 µM
- CC(=O)c1c(C)[nH]c(C(=O)OCc2cccc(Cl)c2)c1C — 5.6-fold higher, 25.4 µM
- c1ccc2c(CN3CCCCCC3)c[nH]c2c1 — within 1.5-fold, 3.61 µM
- COc1ccc([C@H]2CC(=O)C=C(c3ccnc4ccc(Cl)cc34)C2)cc1 — within 1.5-fold, 6.01 µM
- S=C(Nc1ccc(Nc2ccccc2)cc1)Nc1ccccn1 — 2.5-fold higher, 11.5 µM
- Cc1sc2ncnc(NCC(O)c3ccccc3)c2c1C (centres undefined) — 2.3-fold higher, 10.5 µM
- COc1ccc(-n2cc(-c3ccccc3)[n+]3c2CCCCC3)cc1 — 2.3-fold lower, 1.94 µM
- N#CCSc1nc2ccccc2c2nc3ccccc3n12 — 2.3-fold higher, 10.3 µM
- CCc1cc(SC#N)cc(C)c1NC(=O)CCl — within 1.5-fold, 4.52 µM
- CCOc1cccc(/C=N/NC(=O)c2cc(C3CC3)[nH]n2)c1O — 1.7-fold higher, 7.83 µM
- CCC(=O)NC(c1cc(Cl)c2cccnc2c1O)C1CC1 (centres undefined) — within 1.5-fold, 6.34 µM
- CNc1ccc2oc(C[C@H]3O[C@@]4(CC[C@H]3C)O[C@H]([C@H](C)C(=O)c3ccc[nH]3)[C@H](C)C[C@H]4C)nc2c1C(=O)O — 3.4-fold lower, 1.32 µM
- CN1/C(=C\C(=S)NC(=O)c2ccccc2Cl)C(C)(C)c2ccccc21 — 1.6-fold higher, 7.37 µM
- CSc1nc(-c2ccccc2)nc(C(Cl)Cl)n1 — within 1.5-fold, 3.88 µM
- CCc1ccc2c(c1)C1(C(=O)N2)N2CCCC2C(C(=O)c2ccc3ccccc3c2)C12C(=O)Nc1ccccc12 (centres undefined) — 1.7-fold higher, 7.76 µM
- c1ccc(CN2CCN(Cc3c[nH]c4ccccc34)CC2)cc1 — 1.7-fold higher, 7.83 µM

In the case of `CCOC(=O)c1sc(NC(=O)c2c(C)nn(Cc3ccccc3)c2C)cc1C`, the AC50 is reported as > 26 µM (inactive).
